Laboratory results taken from ChEMBL document CHEMBL1141012, “Cytotoxic bromotyrosine derivatives from a two-sponge association of Jaspis sp. and Poecillastra sp” (Bioorg Med Chem Lett, 2008).
In brackets after ≈: the same amount, converted by molar mass.

Assays:
Assay type in all cases: functional, cell-based
SK-MEL-2 = assay: Cytotoxicity against human SK-MEL-2 cells
HCT-15 = assay: Cytotoxicity against human HCT15 cells
XF498 = assay: Cytotoxicity against human XF498 cells
A549 = assay: Cytotoxicity against human A549 cells
SK-OV-3 = assay: Cytotoxicity against human SKOV3 cells

Structure (SMILES)	EC50 (SK-MEL-2) [µg/mL]	EC50 (HCT-15) [µg/mL]	EC50 (XF498) [µg/mL]	EC50 (A549) [µg/mL]	EC50 (SK-OV-3) [µg/mL]
O=C1NCCSSCCNC(=O)/C(=N/O)Cc2ccc(c(Br)c2)Oc2cc(cc(Br)c2O)C/C(=N\O)C(=O)NCCSSCCNC(=O)/C(=N/O)Cc2cc(Br)c(O)c(c2)Oc2ccc(cc2Br)C/C1=N\O [CYCLOBISPSAMMAPLIN A]	1.14 (≈ 0.861 µM)	3.82 (≈ 2.88 µM)	2.88 (≈ 2.17 µM)	1.95 (≈ 1.47 µM)	1.21 (≈ 0.913 µM)
COc1cccc2c1C(=O)c1c(O)c3c(c(O)c1C2=O)C[C@@](O)(C(=O)CO)C[C@@H]3O[C@H]1C[C@H](N)[C@H](O)[C@H](C)O1 [DOXORUBICIN]	0.01 (≈ 0.0184 µM)	0.03 (≈ 0.0552 µM)	0.03 (≈ 0.0552 µM)	0.01 (≈ 0.0184 µM)	0.01 (≈ 0.0184 µM)
CN(C)C(=N)N.CN(C)C(=N)N.O=C(NCCSSCCNC(=O)/C(Cc1ccc(OS(=O)(=O)O)c(Br)c1)=N/O)/C(Cc1ccc(OS(=O)(=O)O)c(Br)c1)=N/O [PSAMMAPLIN A SULFATE DIGUANIDIUM SALT]	4.48	43.2	16.9	12.3	1.79
O=C(NCCSSCCNC(=O)/C(Cc1ccc(O)c(Br)c1)=N/O)/C(Cc1ccc(OS(=O)(=O)[O-])c(Br)c1)=N\O.[Na+] [PSAMMAPLIN A SULFATE SODIUM SALT]	1.13	1.25	0.18	0.18	0.16
N#CSCCNC(=O)/C(Cc1ccc(O)c(Br)c1)=N/O [PSAMMAPLIN B]	19.4 (≈ 54.2 µM)	> 30	10.9 (≈ 30.5 µM)	12.8 (≈ 35.8 µM)	9.27 (≈ 25.9 µM)
NC(=O)C(=O)NCCSSCCNC(=O)/C(Cc1ccc(O)c(Br)c1)=N/O [PSAMMAPLIN E]	0.21 (≈ 0.438 µM)	1.92 (≈ 4.01 µM)	1.63 (≈ 3.4 µM)	1.47 (≈ 3.07 µM)	0.19 (≈ 0.396 µM)
CS(=O)(=O)CCNC(=O)/C(Cc1ccc(O)c(Br)c1)=N/O [PSAMMAPLIN I]	2.84 (≈ 7.49 µM)	6.51 (≈ 17.2 µM)	2.96 (≈ 7.81 µM)	4.15 (≈ 10.9 µM)	1.76 (≈ 4.64 µM)
COC(=O)CCNC(=O)/C(Cc1ccc(O)c(Br)c1)=N/O [PSAMMAPLIN M]	> 30	> 30	> 30	> 30	> 30
